In patent publication US12084437B2, “Halo-substituted piperidines as orexin receptor modulators” (AstraZeneca AB, priority 2016, dated 2024):

Tests used:
OX1 = biological target: T1, OX1 (Homo sapiens, UniProt O43613); test: Orexin receptor cell-based functional assay, [Ca2+]i by FLIPR, CHO-OX1 cells; settings: FLIPR calcium, antagonism of EC90 of [OX], read-out: OXI, IC50
T1 construct: expressed in transfected cells; host or cells: CHO (CHO-OX1)
T1 sequence (O43613 1-425): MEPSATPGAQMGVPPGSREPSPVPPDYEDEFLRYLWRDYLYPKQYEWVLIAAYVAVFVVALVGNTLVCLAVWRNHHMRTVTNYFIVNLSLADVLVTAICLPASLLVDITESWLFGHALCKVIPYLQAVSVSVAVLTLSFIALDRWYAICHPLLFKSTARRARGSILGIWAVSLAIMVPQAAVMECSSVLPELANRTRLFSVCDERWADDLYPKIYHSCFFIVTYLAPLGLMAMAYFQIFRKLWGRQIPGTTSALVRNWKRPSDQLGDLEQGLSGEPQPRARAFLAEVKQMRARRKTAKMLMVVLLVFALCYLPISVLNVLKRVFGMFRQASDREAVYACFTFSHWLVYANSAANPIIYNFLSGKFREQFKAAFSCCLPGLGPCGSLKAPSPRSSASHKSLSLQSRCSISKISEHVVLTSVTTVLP
Description: (§1) Measurement of [Ca^2+]i using a FLIPR: CHO-OX1 or CHO-OX2 cells were seeded into black-walled clear-base 384-well plates (Corning, catalog #3712) at a density of 20,000 cells per well in F12-K medium supplemented with 10% FBS and then incubated in a 5% CO2, 37° C. incubator overnight to reach 90% confluency. The cells were incubated with equal volume of calcium6 loading buffer (Molecular Devices, Inc.) containing 2.5 mM probenecid at 37° C. for 2 h, followed by test compounds (dose-range 0.1 nM-10 μM) for another 30 min. The plates were then placed into a FLIPR (Molecular Devices, Inc.) to monitor fluorescence (λ excitation 488 nm, λ emission 540 nm) before and after the addition of EC90 of [OX].

OX2 = biological target: T2, OX2 (Homo sapiens, UniProt O43614); test: Orexin receptor cell-based functional assay, [Ca2+]i by FLIPR, CHO-OX2 cells; settings: FLIPR calcium, antagonism of EC90 of [OX]
T2 construct: expressed in transfected cells; host or cells: CHO (CHO-OX2)
T2 sequence (O43614 1-444): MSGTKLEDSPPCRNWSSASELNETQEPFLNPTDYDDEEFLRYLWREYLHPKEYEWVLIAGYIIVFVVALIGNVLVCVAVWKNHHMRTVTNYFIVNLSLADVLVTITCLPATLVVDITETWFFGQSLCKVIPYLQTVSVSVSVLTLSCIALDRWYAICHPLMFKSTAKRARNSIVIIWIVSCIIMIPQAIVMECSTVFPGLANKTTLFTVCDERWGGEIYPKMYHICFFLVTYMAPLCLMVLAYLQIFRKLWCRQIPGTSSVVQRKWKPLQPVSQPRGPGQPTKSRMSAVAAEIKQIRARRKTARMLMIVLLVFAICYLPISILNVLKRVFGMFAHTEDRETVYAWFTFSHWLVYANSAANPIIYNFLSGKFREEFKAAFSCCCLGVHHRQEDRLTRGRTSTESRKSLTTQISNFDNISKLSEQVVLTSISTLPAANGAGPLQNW
Description: as §1, with “[OX]. Results for exemplary compounds of Formulae (I), (Ia), (Ib), (II), (IIa), (III), (IIIa), (IV), (IVa), (V), or (Va) are shown in Table 3.” for “[OX].”

For `COc1cccc(-c2cn(C)nc2C(=O)N2CC(F)(F)C[C@@H](C)[C@H]2CNc2ncc(C(F)(F)F)cn2)c1` [Compound 29], the IC50 (OX1) was 4 nM and the IC50 (OX2) was over 5000 nM.
`Cc1ccc(-n2nccn2)c(C(=O)N2CC(F)(F)C[C@@H](C)[C@H]2CNc2ncc(C(F)(F)F)cn2)n1` [Compound 12] was tested, and the IC50 (OX1) was 15 nM and the IC50 (OX2) was over 5000 nM.
`COc1ccc(-c2cn(C)nc2C(=O)N2CC(F)(F)C[C@@H](C)[C@H]2CNc2ncc(C(F)(F)F)cn2)nc1` [Compound 45] showed an IC50 (OX1) of 47 nM and an IC50 (OX2) of over 5000 nM.
Compound `CCc1cnc(NC[C@@H]2[C@H](C)CC(F)(F)CN2C(=O)c2nn(C)cc2-c2ccccc2)nc1` [Compound 20] has an IC50 (OX1) of 87 nM and an IC50 (OX2) of over 5000 nM.
For `C[C@@H]1CC(F)(F)CN(C(=O)c2cc(C#N)ccc2-n2nccn2)[C@@H]1CNc1ncc(C(F)(F)F)cn1` [Compound 14], the IC50 (OX1) was 52 nM and the IC50 (OX2) was over 5000 nM.
For `Cc1cccc(-c2cn(C)nc2C(=O)N2CC(F)(F)C[C@@H](C)[C@H]2CNc2cnc(C(F)(F)F)cn2)n1` [Compound 132], the IC50 (OX1) was 7 nM and the IC50 (OX2) was over 5000 nM.
`C[C@@H]1CC(F)(F)CN(C(=O)c2cc(Cl)ccc2-n2nccn2)[C@@H]1CNc1cnc(C(F)(F)F)cn1` [Compound 154] showed an IC50 (OX1) of 12 nM and an IC50 (OX2) of over 5000 nM.
With `Cc1ccc(-c2cn(C)nc2C(=O)N2CC(F)(F)C[C@@H](C)[C@H]2CNc2ncc(C(F)(F)F)cn2)nc1` [Compound 44] the IC50 (OX1) was 10 nM and the IC50 (OX2) was over 5000 nM.
In the case of `Cc1ccc(-c2cn(C)nc2C(=O)N2CC(F)(F)C[C@@H](C)[C@H]2CNc2cnc(C(F)(F)F)cn2)nc1` [Compound 133], the IC50 (OX1) is reported as 11 nM and the IC50 (OX2) is reported as over 5000 nM.
Work on `Cc1ccc(-c2sc(C)nc2C(=O)N2CC(F)(F)C[C@@H](C)[C@H]2CNc2ncc(C(F)(F)F)cn2)nc1` [Compound 76] yielded an IC50 (OX1) of 10 nM and an IC50 (OX2) of over 5000 nM.
With `COc1ccc(-c2cn(C)nc2C(=O)N2CC(F)(F)C[C@@H](C)[C@H]2CNc2ccc(C(F)(F)F)cn2)cc1` [Compound 177] the IC50 (OX1) was 6 nM and the IC50 (OX2) was 170 nM.
`C[C@@H]1CC(F)(F)CN(C(=O)c2nn(C)cc2-c2ccc(F)cc2)[C@@H]1CNc1cnc(C(F)(F)F)cn1` [Compound 121] showed an IC50 (OX1) of 5 nM and an IC50 (OX2) of over 5000 nM.
With `Cc1ccc(-c2nnn(C)n2)c(C(=O)N2CC(F)(F)C[C@@H](C)[C@H]2CNc2ncc(C(F)(F)F)cn2)n1` [Compound 240, ((2S,3R)-5,5-difluoro-3-methyl-2-(((5-(trifluoromethyl)pyrimidin-2-yl)amino)methyl)piperidin-1-yl)(6-methyl-3-(2-methyl-2H-tetrazol-5-yl)pyridin-2-yl)methanone] the IC50 (OX1) was 29 nM and the IC50 (OX2) was over 5000 nM.
With `Cc1ccc(-c2ccccc2)c(C(=O)N2CC(F)(F)C[C@@H](C)[C@H]2CNc2ncc(Cl)cn2)n1` [Compound 52] the IC50 (OX1) was 9 nM and the IC50 (OX2) was over 5000 nM.
`C[C@@H]1CC(F)(F)CN(C(=O)c2nn(C)cc2-c2ccc(Cl)cn2)[C@@H]1CNc1ncc(C(F)(F)F)cn1` [Compound 221, (4-(5-chloropyridin-2-yl)-1-methyl-1H-pyrazol-3-yl)((2S,3R)-5,5-difluoro-3-methyl-2-(((5-(trifluoromethyl)pyrimidin-2-yl)amino)methyl)piperidin-1-yl)methanone] was tested, and the IC50 (OX1) was 2 nM and the IC50 (OX2) was over 5000 nM.
`C[C@@H]1CC(F)(F)CN(C(=O)c2cn(C)nc2-c2ccccc2)[C@@H]1CNc1ncc(Cl)cn1` [Compound 254] was tested, and the IC50 (OX1) was 70 nM and the IC50 (OX2) was over 5000 nM.
For `Cc1nc(C(=O)N2CC(F)(F)C[C@@H](C)[C@H]2CNc2ncc(Cl)cn2)c(-c2ncccn2)s1` [Compound 50], the IC50 (OX1) was 20 nM and the IC50 (OX2) was over 5000 nM.
For `C[C@@H]1CC(F)(F)CN(C(=O)c2cnn(C)c2-c2ccccn2)[C@@H]1CNc1ncc(C(F)(F)F)cn1` [Compound 95], the IC50 (OX1) was over 1000 nM and the IC50 (OX2) was over 5000 nM.
In the case of `C[C@@H]1CC(F)(F)CN(C(=O)c2nn(C)cc2-c2ncc(F)cn2)[C@@H]1CN(C)c1ncc(C(F)(F)F)cn1` [Compound 263], the IC50 (OX1) is reported as 57 nM and the IC50 (OX2) is reported as over 5000 nM.
`C[C@@H]1CC(F)(F)CN(C(=O)c2nn(C)cc2-c2cccc(C(F)(F)F)n2)[C@@H]1CNc1ncc(C(F)(F)F)cn1` [Compound 229, ((2S,3R)-5,5-difluoro-3-methyl-2-(((5-(trifluoromethyl)pyrimidin-2-yl)amino)methyl)piperidin-1-yl)(1-methyl-4-(6-(trifluoromethyl)pyridin-2-yl)-1H-pyrazol-3-yl)methanone] gave an IC50 (OX1) of 7 nM and an IC50 (OX2) of over 5000 nM.
In the case of `Cc1cccnc1-c1cn(C)nc1C(=O)N1CC(F)(F)C[C@@H](C)[C@H]1CNc1ncc(C(F)(F)F)cn1` [Compound 39], the IC50 (OX1) is reported as 1160 nM and the IC50 (OX2) is reported as over 5000 nM.
For `Cc1ccc(-n2nccn2)c(C(=O)N2CC(F)(F)C[C@@H](C)[C@H]2CNc2ncc(C(F)(F)F)cn2)c1` [Compound 5], the IC50 (OX1) was 10 nM and the IC50 (OX2) was over 5000 nM.
In the case of `Cc1ccc(-c2cn(C)nc2C(=O)N2CC(F)(F)C[C@@H](C)[C@H]2CNc2cnc(C(F)(F)F)cn2)cc1` [Compound 122], the IC50 (OX1) is reported as 5 nM and the IC50 (OX2) is reported as over 5000 nM.
Compound `Cc1ccc(-c2nnn(C)n2)c(C(=O)N2CC(F)(F)C[C@@H](C)[C@H]2CNc2ncc(C(F)(F)F)cn2)c1` [Compound 8] has an IC50 (OX1) of 8 nM and an IC50 (OX2) of over 5000 nM.
`C[C@@H]1CC(F)(F)CN(C(=O)c2cn(C)nc2-c2ccccn2)[C@@H]1CNc1ncc(C(F)(F)F)cn1` [Compound 93] gave an IC50 (OX1) of 156 nM and an IC50 (OX2) of over 5000 nM.
Work on `C[C@@H]1CC(F)(F)CN(C(=O)c2nn(C)cc2-c2ccc(F)cc2)[C@@H]1COc1ccc(C(F)(F)F)cn1` [Compound 205, ((2S,3R)-5,5-difluoro-3-methyl-2-(((5-(trifluoromethyl)pyridin-2-yl)oxy)methyl)piperidin-1-yl)(4-(4-fluorophenyl)-1-methyl-1H-pyrazol-3-yl)methanone] yielded an IC50 (OX1) of 52 nM and an IC50 (OX2) of over 5000 nM.
In the case of `Cc1cccc(-c2cn(C)nc2C(=O)N2CC(F)(F)C[C@@H](C)[C@H]2CNc2ncc(C(F)(F)F)cn2)n1` [Compound 46], the IC50 (OX1) is reported as 7 nM and the IC50 (OX2) is reported as over 5000 nM.
In the case of `Cc1cccc(-c2sc(C)nc2C(=O)N2CC(F)(F)C[C@@H](C)[C@H]2CNc2cnc(C(F)(F)F)cn2)c1` [Compound 139], the IC50 (OX1) is reported as 10 nM and the IC50 (OX2) is reported as over 5000 nM.
`C[C@@H]1CC(F)(F)CN(C(=O)c2nn(C)cc2-c2cccnc2)[C@@H]1CNc1ncc(C(F)(F)F)cn1` [Compound 90] was tested, and the IC50 (OX1) was 206 nM and the IC50 (OX2) was over 5000 nM.
`C[C@@H]1CC(F)(F)CN(C(=O)c2nc(C(F)(F)F)ccc2-n2nccn2)[C@@H]1CNc1ccc(C(F)(F)F)cn1` [Compound 203, (3-(2H-1,2,3-triazol-2-yl)-6-(trifluoromethyl)pyridin-2-yl)((2S,3R)-5,5-difluoro-3-methyl-2-(((5-(trifluoromethyl)pyridin-2-yl)amino)methyl)piperidin-1-yl)methanone] was tested, and the IC50 (OX1) was over 5000 nM and the IC50 (OX2) was 3700 nM.
For `C[C@@H]1CC(F)(F)CN(C(=O)c2cc(Cl)ccc2-c2nnn(C)n2)[C@@H]1CNc1cnc(C(F)(F)F)cn1` [Compound 161], the IC50 (OX1) was 9 nM and the IC50 (OX2) was over 5000 nM.
Compound `C[C@@H]1CC(F)(F)CN(C(=O)c2nn(C)cc2-c2ncc(Cl)cn2)[C@@H]1CNc1ncc(C(F)(F)F)cn1` [Compound 218, (4-(5-chloropyrimidin-2-yl)-1-methyl-1H-pyrazol-3-yl)((2S,3R)-5,5-difluoro-3-methyl-2-(((5-(trifluoromethyl)pyrimidin-2-yl)amino)methyl)piperidin-1-yl)methanone] has an IC50 (OX1) of 7 nM and an IC50 (OX2) of over 5000 nM.
